Source: patent US20170097335A1, “Methods for Diagnosing Impaired Absorption of Amino Acids, Monosaccharides and Fatty Acids” (The Texas A&M University System, priority 2015, published 2017)
Blank lines part the entries; values can stand above or below the molecule they belong to.

Key:
[1] = Conversion of D- into L-phenylalanine; assay type: in vivo; conditions: observed in the pig
Excerpt: This allows for an estimation of the potential disturbance of the digestion and splanchnic extraction measurements that also involve L-phenylalanine stable isotopes.

[2] = Ratio of enterally to intravenously provided L-allo-isoleucine isotopologues in blood samples, pig model; assay type: in vivo
Experimental: (§1) Both human and animal models were used for measuring protein absorption in the intestinal walls. The subjects were prepared with indwelling catheters to enable blood sampling. Stable isotopes of amino acids are obtained and made into sterile and pyrogen-free solutions. These isotopes may comprise L-allo-[^2H10, ^15N]-isoleucine, L-allo-[^13C6]-isoleucine, D-1-[^13C]phenylalanine, D-C^3C6]phenylalanine, D-[^2H5]-phenylalanine, D-[2-^2H]phenylalanine. A blood sample is taken or drawn from each subject for a measurement of the natural background. A bolus or continuous infusion of the stable isotope of the amino acid may be used. The labeled amino acid is administered orally to each subject and another isotope of the amino acid nutrient is administered intravenously to the same subject at the same time or within 8 hours. Blood samples are taken or drawn from each subject in the time window of about one to several hours. The labeled amino acids enrichments in each sample are analyzed by Mass Spectrometry. Results from the Mass Spectrometry are applied to a non-compartmental model for analysis and ratio determination. The metabolic phenotype is produced based on the measured amino acids production, consumption and metabolism.

[3] = Protein absorption in the intestinal walls: ratio of orally to intravenously provided isotopologue in blood, healthy volunteers; assay type: in vivo, human; conditions: FIG. 1
Experimental: as §1

- conversion rate of D- into L-phenylalanine [1]: 10%
Compound: N[C@H](Cc1ccccc1)C(=O)O [D-phenylalanine]

- ratio of enterally administered over intravenously administered isotopologue ([2]; continuously fed pig (4 hours), over intravenously administered L-allo-[^2H10, ^15M-isoleucine, FIG. 4): about 0.8
- ratio of enterally administered over intravenously administered isotopologue ([2]; pigs with bolus feeding for 4 hours, over intravenously administered allo-Isoleucine[^2H10, ^15N](M9+M11), FIG. 5): about 0.8
Compound: [13CH3][13CH2][13C@@H]([13CH3])[13C@H](N)[13C](=O)O [L-allo-[^13C6]-isoleucine]

- absorption ratio of orally provided isotopologue over intravenously provided isotopologue [3]: about 0.8
Compound: CC[C@@H](C)[C@H](N)C(=O)O [L-allo-isoleucine]
